Test results: US20250099465A1, “REMIBRUTINIB FOR USE IN THE TREATMENT OF HIDRADENITIS SUPPURATIVA” (NOVARTIS AG, priority 2022, published 2025)
Where “and” joins values, the source holds several entries; their conditions need not be identical. Identical values can stand only once. Like-named read-outs stand apart in the source and are kept apart here.

What was measured:
[1] = higher dose treatment arms; cited from earlier work
[2] = cited from earlier work
BTK [3] = target: T1, BTK (Homo sapiens, UniProt Q06187); assay: Phase I clinical study (Kaul et al. 2021): PK, BTK occupancy in blood, short-term safety; assay type: in vivo
T1 construct: simulate BTK occupancy in human spleen/tissues; from tissue; host or cells: human spleen / lymph node / peripheral tissue B cells (simulated, not measured)
T1 sequence (Q06187 whole entry): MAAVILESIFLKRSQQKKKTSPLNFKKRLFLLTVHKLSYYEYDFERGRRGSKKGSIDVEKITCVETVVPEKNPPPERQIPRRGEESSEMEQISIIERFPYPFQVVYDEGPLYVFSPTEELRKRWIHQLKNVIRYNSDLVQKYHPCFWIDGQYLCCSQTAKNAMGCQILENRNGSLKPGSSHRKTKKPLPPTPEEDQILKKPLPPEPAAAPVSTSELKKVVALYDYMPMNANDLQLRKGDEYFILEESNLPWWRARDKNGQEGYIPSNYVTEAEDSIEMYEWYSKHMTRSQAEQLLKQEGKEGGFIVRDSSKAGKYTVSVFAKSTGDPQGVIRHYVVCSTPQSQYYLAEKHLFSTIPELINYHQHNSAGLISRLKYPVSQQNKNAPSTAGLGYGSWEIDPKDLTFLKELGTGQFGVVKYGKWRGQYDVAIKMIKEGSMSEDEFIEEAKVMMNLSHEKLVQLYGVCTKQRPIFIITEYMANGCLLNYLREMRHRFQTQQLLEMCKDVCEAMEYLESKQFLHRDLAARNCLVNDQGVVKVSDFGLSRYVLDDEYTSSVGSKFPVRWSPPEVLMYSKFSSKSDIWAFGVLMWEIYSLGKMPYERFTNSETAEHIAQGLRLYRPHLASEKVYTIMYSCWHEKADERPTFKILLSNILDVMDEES
Source text: BTK occupancy in blood is not an informative biomarker for the purpose of dose selection due to LOU064 pharmacological properties (irreversible binding). […] Occupancy in tissue may be more representative of the expected efficacy of LOU064.
Pharmacokinetic data from a Phase I clinical study reported by Kaul et al. (2021) were used in the current analysis, including 102 patients.
A population PK model has been developed to describe the interim PK from a Phase I clinical study reported by Kaul et al. (2021). […] Overall the resulting population model described the PK data reasonably well.

[4] = Phase 2b randomized, double-blind, placebo-controlled core study in CSU patients; assay type: in vivo
Protocol: In a Phase 2b, randomized, double-blind, placebo-controlled trial evaluating the efficacy and safety of LOU064 over 12 weeks in patients inadequately controlled by […], with at least moderately active chronic spontaneous urticaria (CSU), patients received LOU064 10 mg q.d. (once daily), 35 mg q.d., 100 mg q.d., 10 mg b.i.d. (twice daily), 25 mg b.i.d., 100 mg b.i.d., or placebo (1:1:1:1:1:1:1 ratio).
(Table 5) In the long-term exposure of the ES (median 35.14 wks, N=183), the proportion of patients with at least one adverse effect (AE) on remibrutinib treatment (57.4% [n=105]) was similar to the CS (presented through for any remibrutinib dose) (58.1% [n=155]; median 12.14 wks, N=267). In the ES, there were 4 serious adverse effects (SAEs), 6 AEs leading to treatment discontinuation and no deaths. The incidences of AEs by […] (SOC) reported in the ES and CS were similar: infections and infestations (23.0% and 24.0%), followed by skin/subcutaneous tissue disorder (17.5% and 16.9%) (Table 5). […] Incidence of AESI in the ES such as infections (23%), bleeding (4.4%) and cytopenias (0.5%) were in line with the CS. Newly occurring notable transaminase increases were single in both ES (isolated ALT>3×ULN, normalized within 4 weeks, in 1 patient discontinued early for personal reasons) and CS (ALT>5×ULN in 1 patient, normalised on treatment).

[5] = 52-week open label extension study in CSU subjects (interim analyses); assay type: in vivo;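 note: Open-label extension assessing long-term safety and tolerability in CSU patients previously enrolled in the Phase 2b trial, dosed at 100 mg b.i.d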
Protocol: In a 52-week open label extension study to evaluate the long-term safety and tolerability of LOU064 in eligible subjects with CSU who participated in the Phase 2b study the dose used was 100 mg b.i.d.
Table 4 presents the safety summary observed in the Phase 2b study up to the cut-off date for the interim analysis.

[6] = Co-administration of LOU064 with oral contraceptives; details: in vivo
Source text: Therefore, in a preferred embodiment, LOU064 is co-administered with oral contraceptives.

BTK [7] = target: T1, BTK; details: single or multiple doses 0.5 mg to 600 mg up to 18 days; 100 and 200 mg b.i.d. up to 12 days; cited from earlier work
[8] = HS patients; cited from earlier work
[9] = human, in vivo; cited from earlier work
B cells = details: case study; cited from earlier work
HS explant cultures = details: cited from earlier work
[10] = CS, CSU patients, Any dose, N = 267, listed as remibrutinib
[11] = 100 mg B.I.D., N = 100, interim analysis cut off 31 Aug. 2020
[12] = 100 mg b.i.d., N = 100 interim analysis
[13] = ES, CSU patients, 100 mg b.i.d., N = 183, median 35.14 wks, listed as remibrutinib
[14] = Phase 2b core and extension study

In the case of `C[C@H]1CN(C2COC2)CCN1c1ccc(Nc2cc(-c3ccnc(N4CCn5c(cc6c5CC(C)(C)C6)C4=O)c3CO)cn(C)c2=O)nc1` [fenebrutinib], the “subjects with transient grade 3 elevations of ALT and/or AST” value [1] is given as 8.3% and 6.3%.
In the case of `C=CC(=O)N1CCC(CNc2ncnc(N)c2-c2ccc(Oc3ccccc3)cc2)CC1` [evobrutinib], the dose-limiting side effects ([2]; 75 mg b.i.d., Phase II clinical studies) is listed as “dose-limiting liver enzyme elevations”.
In the case of `C=CC(=O)N(C)CCOc1c(N)ncnc1-c1cc(F)cc(NC(=O)c2ccc(C3CC3)cc2F)c1C` [LOU064, N-(3-(6-amino-5-(2-(N-methylacrylamido)ethoxy)pyrimidin-4-yl)-5-fluoro-2-methylphenyl)-4-cyclopropyl-2-fluorobenzamide], the “change in clearance after repeated dosing” value (BTK [3]; doses lower than 50 mg, no difference at higher doses) is reported as “lower clearance at steady state at Day 12 when compared to Day 1”, the “BTK occupancy in blood” value (BTK [3]; low doses) is reported as “reaches full occupancy even at low doses” and the “efficacy in CSU compared to the other doses” value ([4]; 25 mg b.i.d. regimen, 12 weeks, CSU inadequately controlled by antihistamines) is reported as “particularly effective”. For the same compound, the “AEs by PT: Headache” value [4, 10] was 9.7%, the “AEs by primary system organ class: Infections and infestations” value [4, 10] was 24.0% and the “AEs by primary system organ class: Skin and subcutaneous tissue disorders” value (“AEs … Skin and subcutaneous tissue disorders” below) [4, 10] was 16.9%. For the same compound, the “Newly occurring notable transaminase increases: ALT>5×ULN, normalised on treatment” value ([4]; CS, any remibrutinib dose) was 1 patient, the Death [5, 11] was 0 n (%) and the “Discontinued study due to an SAE(s)” value [5, 11] was 0 n (%). The “Discontinued study due to any AE(s)” value [5, 11] was 0 n (%), the “Non-fatal SAE” value [5, 11] was 3 (3.0) n (%) and the “Treatment interruption due to AE(s)” value [5, 11] was 5 (5.0) n (%). The “Treatment interruption due to SAE(s)” value [5, 11] was 1 (1.0) n (%), the “Patients with AE(s)” value ([5]; 100 mg B.I.D., N = 100, interim analysis cut off 31 Aug. 2020, median exposure 17.86 weeks) was 58 (58) n (%) and the safety signal ([5]; 100 mg b.i.d., 100 subjects, median exposure 17.86 weeks) was “No safety signal has been observed”. The “SAEs reported (ovarian cyst, chest pain, appendicitis; none related to study drug)” value [5, 12] was “Three”, the “SOC Infections and infestations” value [5, 12] was 14% and the “SOC Skin and subcutaneous tissue disorders” value [5, 12] was 13%. The “adverse event preferred term: diarrhea” value [5, 12] was 4%, the “adverse event preferred term: dizziness” value [5, 12] was 3% and the “adverse event preferred term: gastroenteritis” value [5, 12] was 3%. The “adverse event preferred term: headache” value [5, 12] was 6%, the “bleeding events or events under SOC Blood and lymphatic system disorders” value [5, 12] was “no bleeding events” and the “subjects who experienced at least one treatment emergent AE” value [5, 12] was 58%. For the same compound, the “dose-limiting liver enzyme elevations and other off-target-effects” value ([5]; 100 mg b.i.d., up to 52 weeks) was “does not induce any dose-limiting liver enzyme elevations and other off-target-effects”, the “Incidence of AESI: bleeding” value ([5]; ES, 100 mg b.i.d., N=183) was 4.4% and the “Incidence of AESI: cytopenias” value ([5]; ES, 100 mg b.i.d., N=183) was 0.5%. For the same compound, the “Incidence of AESI: infections” value ([5]; ES, 100 mg b.i.d., N=183) was 23%, the “Newly occurring notable transaminase increases: isolated ALT>3×ULN, normalized within 4 weeks” value ([5]; ES, 100 mg b.i.d., N=183) was 1 patient and the deaths ([5]; ES, 100 mg b.i.d., N=183, median 35.14 wks) was “no deaths”. For the same compound, the “AEs … Skin and subcutaneous tissue disorders” value ([5]; ES, CSU patients, 100 mg b.i.d., N = 183, median 35.14 wks) was 32 n, the “AEs by PT: Headache” value [5, 13] was 6.6% and the “AEs by primary system organ class: Infections and infestations” value [5, 13] was 23.0%. The “AEs … Skin and subcutaneous tissue disorders” value [5, 13] was 17.5%, the “Discontinued study treatment due to AE(s)” value [5, 13] was 6 n and the “Patients with SAE(s)” value [5, 13] was 4 n. The “ECG findings or QT of >500 ms” value [5, 14] was “no significant ECG findings or QT of >500 ms noted in any patient”, the “analysis of laboratory parameters” value [5, 14] was “did not reveal significant safety concerns” and the vital signs [5, 14] was “no clinically meaningful changes”. For the same compound, the “safety profile over longer-term exposure” value ([5]; whole dose range, 100 mg bid up to 52 wks, patients with CSU) was “no new safety signals”, the “impact on exposure and efficacy of co-administered oral contraceptives (ethinylestradiol or levonorgestrel)” value [6] was “without a major impact on their exposure and efficacy” and the Short-term safety (BTK [7]) was “has been shown”.
In the case of adalimumab, the “patients with suboptimal therapeutic responses” value [8] is given as ~40%.
For `CC#CC(=O)N1CCC[C@H]1c1nc(-c2ccc(C(=O)Nc3ccccn3)cc2)c2c(N)nccn12` [Acalabrutinib], the “commonly observed adverse reactions” value [9] is given as “infection, headache, and diarrhea”.
For “rituximab: B-cell depletor, CD20 antagonist”, the “outcome of HS treatment using B-cell depletion” value (B cells) is listed as “successful treatment of HS” and the “effect in HS explant cultures” value (HS explant cultures) is listed as “anti-inflammatory effects”.
For `C=CC(=O)N1CCC[C@@H](n2c(=O)n(-c3ccc(Oc4ccccc4)cc3)c3c(N)nccc32)C1` [tolebrutinib], the dose-limiting side effects ([2]; human, in vivo) is listed as “dose-limiting diarrhea”.
